Results taken from patent US12281116B2, “HTT modulators for treating Huntington's disease” (CHDI Foundation, Inc., priority 2021, dated 2025).

system: tHTT (total HTT protein); assay: Time-resolved FRET (HTRF) assay: Q48-Huntingtin and total-Huntingtin detection in GEN020 hESC lysates; format: cell-based; conditions: tHTT activity; human embryonic stem cells GEN020 (mutant 48 Q repeat allele); test compounds 48 hours; read-out: HTT Lowering Activity (HTRF)
Procedure: Time-resolved FRET assay: Q48-Huntingtin and total-Huntington detection Detection of endogenous HTT protein in cell lysates was performed using a protocol adapted from Weiss et al. See Weiss A et al. (2009). Single-step detection of mutant huntingtin in animal and human tissues: a bioassay for Huntington's disease. Anal. Biochem. 395(1): 8-15.
The multiplex assay was performed in human embryonic stem cells (GEN020 hESCs with mutant 48 Q repeat allele) which have been derived by Genea Biocells from human blastocysts of HD donors. Bradley C K et al. (2011). Derivation of Huntington's disease-affected human embryonic stem cell lines, Stem Cells Dev. 2011 March; 20(3):495-502. Cells were plated into 384-well collagen coated plates (10,000 cells per well) and left to adhere for 24 hours, test compounds were then added for 48 hours (37° C., 5% CO2), cells were then lysed, and the lysate was transferred to a black 384-well assay plate.
The assay plate included a combination of HTRF labelled monoclonal antibodies added to recognize discreet areas of the HTT protein, the Tb “donor” antibody (2B7-Tb: 0.2 ng/well) recognizes a sequence at the N-terminus of the protein, an Alexa488 “acceptor 1” antibody (MW1-Alexa488: 30 ng/well) recognizes an area in the polyQ region, whereas a d2 “acceptor 2” antibody (MAB2166-d2: 6 ng/well) recognizes a sequence beyond the polyQ region. These detection reagents were incubated with the cell lysate at room temperature for 4-6 hours before having their fluorescence quantified at 615 nm (donor) and 535 nm and 665 nm (acceptor 1 and 2 respectively). The donor/acceptor ratio between these signals indicated the relative quantities of mHTT and tHTT.
Results for various compounds described herein are provided in the Tables below. tHTT activity in this assay is categorized as 10-20 μM (−); 1-10 μM (+); 0.5-1 μM (++); 0.1-0.5 μM (+++); <0.1 μM (++++).

Question: With `Cc1cn2cc(NC(=O)c3cnc(N4CC5C(C4)C5N4CCCC4)cn3)cc(F)c2n1` (stereo not shown) [Example 32, N-(8-Fluoro-2-methyl-imidazo[1,2-a]pyridin-6-yl)-5-(6-pyrrolidin-1-yl-3-azabicyclo[3.1.0]hexan-3-yl)pyrazine-2-carboxamide] as the molecule, how does the IC50 read?
Answer: 500 to 1000 nM

Question: With `CCNC1C2CN(c3cnc(C(=O)Nc4cc(F)c5nc(C)cn5c4)cn3)CC21` (stereo not shown) [Example 23, 5-(6-(ethylamino)-3-azabicyclo[3.1.0]hexan-3-yl)-N-(8-fluoro-2-methylimidazo[1,2-a]pyridin-6-yl)pyrazine-2-carboxamide] as the molecule, how does the IC50 read?
Answer: < 100 nM

Question: With `CN1CCCC2(C1)CN(c1cnc(C(=O)Nc3cc4cn(C)nc4cc3OCc3ccccc3)cn1)C2` [Example 10, N-(6-(benzyloxy)-2-methyl-2H-indazol-5-yl)-5-(6-methyl-2,6-diazaspiro[3.5]nonan-2-yl)pyrazine-2-carboxamide] as the molecule, how does the IC50 read?
Answer: 100 to 500 nM

Question: With `CN[C@@H]1CCN(c2cnc(C(=O)Nc3cc(OC)c4nc(C)oc4c3)cn2)C1` [Example 22, (R)-N-(4-methoxy-2-methylbenzo[d]oxazol-6-yl)-5-(3-(methylamino)pyrrolidin-1-yl)pyrazine-2-carboxamide] as the molecule, how does the IC50 read?
Answer: 100 to 500 nM

Question: For `Cc1cn2cc(NC(=O)c3cnc(N4CC[C@@H](NC5=NCCN5)C4)cn3)cc(F)c2n1` [Example 20, (R)-5-(3-((4,5-dihydro-1H-imidazol-2-yl)amino)pyrrolidin-1-yl)-N-(8-fluoro-2-methylimidazo[1,2-a]pyridin-6-yl)pyrazine-2-carboxamide], which IC50 is on record?
Answer: 100 to 500 nM

Question: Which IC50 does the source give for `Cc1cn2cc(NC(=O)c3cnc(N4CC5C(N)C5C4)cn3)nc(C)c2n1` (stereo not shown) [Example 25] here?
Answer: 100 to 500 nM

Question: With `Cc1cn2cc(NC(=O)c3cnc(-n4cc(CNC5CC5)cn4)cn3)cc(F)c2n1` [Example 46, 5-(4-((Cyclopropylamino)methyl)-1H-pyrazol-1-yl)-N-(8-fluoro-2-methylimidazo[1,2-a]pyridin-6-yl)pyrazine-2-carboxamide] as the molecule, how does the IC50 read?
Answer: 500 to 1000 nM

Question: `Cc1cn2cc(NC(=O)c3cnc(N4CC5C(N)C5C4)cn3)c(F)c(C)c2n1` (stereo not shown) [Example 27] was tested. Which IC50 did it give?
Answer: 100 to 500 nM

Question: With `CN[C@@H]1CCN(c2cnc(C(=O)Nc3cn4cc(C)nc4c(F)c3C)cn2)C1` [Example 21, (R)-N-(8-fluoro-2,7-dimethylimidazo[1,2-a]pyridin-6-yl)-5-(3-(methylamino)pyrrolidin-1-yl)pyrazine-2-carboxamide] as the molecule, how does the IC50 read?
Answer: 100 to 500 nM

Question: For `CN[C@@H]1CCN(c2cnc(C(=O)Nc3cc4cn(C)nc4cc3OCc3ccccc3)cn2)C1` [Example 8, (R)-N-(6-(benzyloxy)-2-methyl-2H-indazol-5-yl)-5-(3-(methylamino)pyrrolidin-1-yl)pyrazine-2-carboxamide], which IC50 is on record?
Answer: < 100 nM

Question: With `Cc1cn2cc(NC(=O)c3cnc(N4CC5CC5(N)C4)cn3)cc(F)c2n1` (stereo not shown) [Example 28] as the molecule, how does the IC50 read?
Answer: 100 to 500 nM

Question: How did the IC50 turn out when `Cc1cn2cc(NC(=O)c3cnc(N4CC(CN5CC(OCC(=O)NCCC6(CCN=[N+]=[N-])N=N6)C5)C4)cn3)cc(F)c2n1` [Example 45, 5-[3-[[3-[2-[2-[3-(2-azidoethyl)diazirin-3-yl]ethylamino]-2-oxo-ethoxy]azetidin-1-yl]methyl]azetidin-1-yl]-N-(8-fluoro-2-methyl-imidazo[1,2-a]pyridin-6-yl)pyrazine-2-carboxamide] was run?
Answer: 500 to 1000 nM

Question: For `Cc1cn2cc(NC(=O)c3cnc(N4CC[C@H](NC5CC5)C4=O)cn3)cc(F)c2n1` [Example 44, (S)-5-(3-(cyclopropylamino)-2-oxopyrrolidin-1-yl)-N-(8-fluoro-2-methylimidazo[1,2-a]pyridin-6-yl)pyrazine-2-carboxamide], which IC50 is on record?
Answer: 100 to 500 nM
